Test results published in patent US7858646B2, “Potentiators of glutamate receptors” (Eli Lilly and Company, priority 2004, dated 2010).

Legend:
human mGlu2 receptors = molecular target: T1, human mGlu2 receptors (Homo sapiens, UniProt Q14416); assay: Potentiation of glutamate-induced increase in intracellular calcium with a mGlu2 expressing cell line (FLIPR); type: cell-based; details: RGT cells expressing human mGlu2 and Galpha15; with submaximal glutamate (e.g. 1 μM)
T1 construct: expressed in transfected cells; host or cells: RGT cells (co-transfected with rat GLAST, stably transfected with Galpha15)
Description: Potentiation of Glutamate-Induced Increase in Intracellular Calcium with a mGlu2 Expressing Cell Line.
Cell lines expressing human mGlu2 receptors are derived as previously described (Desai, Burnett, Mayne, Schoepp, Mol. Pharmacol. 48, 648-657, 1995) and cultured in DMEM with 5% dialyzed fetal bovine serum, 1 mM glutamine, 1 mM sodium pyruvate, 50 μg/mL Geneticin G418, and 0.2 mg/mL hygromycin B. Confluent cultures are passaged weekly. These cells are referred to as RGT cells for Rat Glutamate Transporter, and have been co-transfected with the glutamate/aspartate transporter GLAST. The RGT cell line expressing the mGlu2 receptors is stably transfected with the promiscuous G-protein, Galpha15 to change the signaling pathway to the mGlu2 receptor to one that could be easily measured through release of intracellular calcium. Thus, intracellular calcium levels are monitored before and after the addition of drugs on a Fluorometric Imaging Plate Reader (i.e. FLIPR, Molecular Devices). The following buffer is used throughout as an assay buffer: 10 mM KCl, 138 mM NaCl, 5 mM Ca Cl2, 1 mM MgC2, 4 mM Na H2PO4, 10 mM Glucose, 10 mM HEPES, pH 7.4. Cells that had been plated 48 hours prior at a density of 30-40,000 cells per well in a 96-well plate are loaded with a calcium-sensitive dye for 90 minutes at 25° C. Fluo-3 (2 mM in DMSO, Molecular Probes) are mixed with a equal volume of 10% pluronic acid in DMSO, and diluted to 8 μM into the buffer described above containing 10% fetal bovine serum to make the loading buffer. Following loading of the cells, the loading buffer is removed and replaced with assay buffer prior to drug addition and monitoring on the FLIPR. The resulting signal from the addition of compounds of formula (I) and submaximal concentrations of a glutamate-site agonist (e.g. 1 μM glutamate) is determined by taking the difference of the maximal fluorescent peak height minus the background fluorescence in each well and expressing the results as a percent of the signal seen with a maximal glutamate response (30 μM glutamate, typically about 30-50,000 Relative Fluorescent Units). Least squares curve fitting with a four-parameter equation is then applied to the resulting dose-% response curve to determine the resulting EC50 values.

human CysLT1 receptor = molecular target: T2, human CysLT1 receptor (Homo sapiens, UniProt Q9Y271); assay: Antagonism of LTD4-induced increase in intracellular calcium within a CysLT1 receptor expressing cell line (FLIPR); type: cell-based; details: AV12-664 cells expressing human CysLT1; 6 nM LTD4; read-out: antagonism of CysLT1 receptors, IC50
T2 construct: expressed in transfected cells; host or cells: AV12-664 (ATCC-9595)
T2 sequence (Q9Y271 1-337): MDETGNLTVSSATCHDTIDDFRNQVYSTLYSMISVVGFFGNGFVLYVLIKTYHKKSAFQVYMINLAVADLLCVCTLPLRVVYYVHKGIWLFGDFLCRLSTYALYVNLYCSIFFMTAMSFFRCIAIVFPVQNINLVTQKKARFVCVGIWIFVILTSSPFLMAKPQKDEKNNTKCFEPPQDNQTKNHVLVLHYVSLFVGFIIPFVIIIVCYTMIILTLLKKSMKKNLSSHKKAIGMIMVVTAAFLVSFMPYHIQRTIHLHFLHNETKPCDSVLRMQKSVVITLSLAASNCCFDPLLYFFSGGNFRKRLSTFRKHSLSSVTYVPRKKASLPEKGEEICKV
Description: Antagonism of Cysteinyl-leukotriene D4 (LTD4)-Induced Increase in Intracellular Calcium within a Cysteinyl-Leukotriene 1 (CysLT1) Receptor Expressing Cell Line.
Cell lines expressing the human CysLT1 receptor [AV12-664 (ATCC-9595)] are derived and maintained in culture media: DMEM with 5% dialyzed fetal bovine serum, 1 mM glutamine, and 1 mM sodium pyruvate. Confluent cultures are passaged weekly. Intracellular calcium levels are monitored in the CysLT1-expressing cells with the addition of LTD4, with or without prior exposure to the compounds being tested as antagonists with a Fluorometric Imaging Plate Reader (FLIPR, Molecular Devices). The following buffer is used throughout as an assay buffer: Hanks Buffered Saline Solution without phenol red (GIBCO), with 10 mM HEPES pH 7.4. Cells that had been plated 48 hours prior at a density of 20-25,000 cells per well in a 96-well plate are loaded with a calcium-sensitive dye for 90 minutes at 25° C. Fluo-3 (2 mM in DMSO, Molecular Probes) is mixed with an equal volume of 10% pluronic acid in DMSO, and diluted to 8 μM in the buffer described above containing 10% fetal bovine serum to make the loading buffer. Following loading of the cells, the buffer is removed and replaced with assay buffer prior to drug addition and monitoring on the FLIPR for several minutes. The resulting signal from the addition of 6 nM LTD4 (provides approximately 90% of the maximal signal with 25 nM LTD4) is determined by taking the difference of the maximal fluorescent peak height minus the background fluorescence in each well and expressing the results as a percent of the signal seen without pretreatment of the test compound(s). Least squares curve fitting with a four-parameter equation is applied to the resulting dose-% inhibition curve to determine the resulting IC50 values.

T1 sequence (Q14416 19-872): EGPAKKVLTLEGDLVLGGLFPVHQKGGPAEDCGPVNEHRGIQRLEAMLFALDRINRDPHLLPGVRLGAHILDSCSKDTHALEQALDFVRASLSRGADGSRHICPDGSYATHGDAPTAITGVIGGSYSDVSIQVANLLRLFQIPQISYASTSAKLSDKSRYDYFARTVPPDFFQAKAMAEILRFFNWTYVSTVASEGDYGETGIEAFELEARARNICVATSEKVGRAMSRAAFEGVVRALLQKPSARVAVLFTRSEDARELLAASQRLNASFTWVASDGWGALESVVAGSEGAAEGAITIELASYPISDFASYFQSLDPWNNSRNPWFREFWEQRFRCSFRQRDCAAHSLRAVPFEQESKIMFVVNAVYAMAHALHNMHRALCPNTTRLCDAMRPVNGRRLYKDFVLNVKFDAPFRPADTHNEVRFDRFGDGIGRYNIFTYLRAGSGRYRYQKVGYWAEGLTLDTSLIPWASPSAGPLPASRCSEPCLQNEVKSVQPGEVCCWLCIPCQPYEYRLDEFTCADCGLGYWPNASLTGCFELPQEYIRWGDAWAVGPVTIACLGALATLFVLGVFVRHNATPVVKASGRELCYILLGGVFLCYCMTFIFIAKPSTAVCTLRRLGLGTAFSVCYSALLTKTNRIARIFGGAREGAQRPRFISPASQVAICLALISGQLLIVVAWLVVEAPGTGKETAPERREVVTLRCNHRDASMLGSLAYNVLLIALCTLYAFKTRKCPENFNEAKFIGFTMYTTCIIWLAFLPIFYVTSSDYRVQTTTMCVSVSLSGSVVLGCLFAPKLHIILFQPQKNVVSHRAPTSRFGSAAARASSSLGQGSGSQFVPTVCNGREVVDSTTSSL

How did the EC50 (human mGlu2 receptors) turn out when `CC(=O)c1ccc(OCc2ccc(Oc3cccc(-c4nn[nH]n4)c3)cc2)c(C)c1O` [Example 22, 1-(2-Hydroxy-3-methyl-4-{4-[3-(1H-tetrazol-5-yl)-phenoxy]-benzyloxy}-phenyl)-ethanone] was run?
The EC50 was less than 350 nM.

For `CCCc1c(OCc2cccc(Sc3cc(C(=O)O)ccn3)c2)ccc(C(C)=O)c1O` [Example 84, 6-(3-((4-acetyl-3-hydroxy-2-propylphenoxy)methyl)phenylthio)isonicotinic acid], which IC50 (human CysLT1 receptor) is on record?
Its IC50 is less than 150 nM.

And the EC50 (human mGlu2 receptors)?
The EC50 was less than 350 nM.

How did the IC50 (human CysLT1 receptor) turn out when `CC(=O)c1ccc(OCc2cccc(Oc3cc(-c4nn[nH]n4)ccn3)c2)c(C(F)(F)F)c1O` [Example 27, 1-(2-Hydroxy-4-{3-[4-(2H-tetrazol-5-yl)-pyridin-2-yloxy]-benzyloxy}-3-trifluoromethyl-phenyl)-ethanone] was run?
Its IC50 is less than 150 nM.

And the EC50 (human mGlu2 receptors)?
The EC50 was less than 350 nM.

With `CC(=O)c1ccc(OCc2ccc(Oc3cc(-c4nn[nH]n4)ccn3)cc2)c(C)c1O` [Example 21, 1-(2-Hydroxy-3-methyl-4-{4-[4-(1H-tetrazol-5-yl)-pyridin-2-yloxy]-benzyloxy}-phenyl)-ethanone] as the compound, how does the IC50 (human CysLT1 receptor) read?
Its IC50 is less than 150 nM.

What about the EC50 (human mGlu2 receptors) of the same compound?
Its EC50 is less than 350 nM.
